Consider 5 molecules from paper PMC10341634, “Vasodilating Effects of Antispasmodic Agents and Their Cytotoxicity in Vascular Smooth Muscle Cells and Endothelial Cells—Potential Application in Microsurgery” (International Journal of Molecular Sciences, 2023).

Where two headings read alike, the source gives them in different places.

Series [1] deals with rat abdominal aorta. Particulars: cited from earlier work.
The conditions of series [2]: cited from earlier work.
For series [3] the following is noted: 1% lidocaine; cited from earlier work.
Series [4] relates to NE-dependent contractions. Particulars: cited from earlier work.
For series [5] the following is noted: 4% lidocaine administered locally; humans; cited from earlier work.
Series [6] concerns rat smooth muscle cells (RSMCs). Briefly: cells. As for the experimental part:
Rat smooth muscle cells were cultured in DMED:F12 (Lonza, Besel, Switzerland) containing 10% fetal bovine serum, 1% penicillin/streptomycin solution (GA-1000; Lonza, Basel, Switzerland), and 1% stable glutamine (Wako, Tokyo, Japan) at 37 °C in a 5% CO2 incubator. The medium was changed every three days. Once the adherent cells reached 70–80% subconfluence, they were detached from the dish using Accutase (Nacalai Tesque, Kyoto, Japan). The cell suspension was diluted with DMED:F12 (+FBS) and adjusted to a concentration of 5 × 10^4 cells/mL, and then 100 μL of the suspension was seeded into each well of a 96-well dish (Nunc™ MicroWell™ 96-Well, Nunclon Delta-Treated, Flat-Bottom Microplate, Thermo Fisher, Waltham, MA, USA) and incubated for two days at 37 °C in a 5% CO2 incubator. Passage 6 smooth muscle cells were used, and five 96-well plates were prepared.
(§1) IC50 is the drug concentration at which half of the cells undergo cell death; it serves as an indicator of cellular toxicity. […] IC50 values were measured using the GloMax® Navigator System (Promega, Madison, WI, USA). The test compounds were diluted in the culture medium and stored in an incubator until use. […] For each test compound, a control and 11 different concentrations were prepared, and the cytotoxicity after the addition of the compounds was examined. The RealTime-GloTM MT Cell Viability Assay kit (Promega, cat#G9711, USA) was used, and the substrate and Nano-luc were added to the medium in each well of a 96-well plate seeded with RSMCs and HCAECs, with 50 μL per well. The plate was incubated for 1–3 h in the incubator. Then, 50 μL of each prepared test compound was added to the plate. The IC50 values were measured using GloMax at 1, 5, 10, 30, and 60 min after the addition of the test compounds, and cytotoxicity was evaluated.

The test system of series [7] is human coronary artery endothelial cells (HCAECs). In words: cells. The protocol:
Human coronary artery ECs were cultured in a collagen-coated dish (AGC TECHNO GLASS Co., Shizuoka, Japan) in EBM-2 (CC-3156, Lonza, Besel, Switzerland) containing Supplements and Growth Factors (CC-4176, Lonza, Besel, Switzerland). The cells were cultured at 37 °C in a 5% CO2 incubator. The medium was changed every three days until the adherent cell monolayer reached 70–80% subconfluence. Subsequently, cells were detached from the dish using Accutase. The cell suspension was diluted with medium, adjusted to a concentration of 5 × 10^4 cells/mL, and seeded into a 96-well plate. The dish was incubated for two days at 37 °C in a 5% CO2 incubator. En ECs at passages 5–6 were used, and five 96-well plates were prepared.
as §1

In series [8] the test system is rat abdominal aorta. In words: Wire myograph vasodilation of norepinephrine-contracted rat abdominal aorta rings. To be noted: for concentration achieving maximal vasodilation effect (approximately 100% relaxation): 10 min after administration, contraction induced by 5 μM norepinephrine. The protocol: Consistent with our previous study, we applied a 1 gram-force (gf) load to approximately 1 mm cross-sectional slices of the rat abdominal aorta. Subsequently, we induced contraction by adding 5 μM norepinephrine. Various vasodilators were then added, and the concentration at which the vessels relaxed back to 1 gf was considered the concentration required for 100% relaxation.
A wire myograph system (Bio Research Co., Osaka, Japan) was used, as previously reported by Ogawa et al.. The rat abdominal aortae were cut into rings and manipulated using two L-shaped hooks. One hook was fixed, and the other was connected to an amplifier to measure the force exerted on the pulled vessel in grams. The rats were deeply anesthetized, and the abdominal aorta was dissected. The excised vessels were immersed in Ringer solution (NaCl 118 mM, KCl 4.7 mM, CaCl2/2H2O 2.5 mM, MgSO4/7H2O 1.2 mM, KH2PO4 1.2 mM, NaHCO3 25 mM, C6H12O6 11 mM, Na2EDTA 0.5 mM). The rat aorta was then sliced into approximately 1 mm-wide rings and hooked onto L-shaped hooks. The chamber was filled with 3 mL of Krebs-Ringer solution, and a gas mixture of 95% O2 and 5% CO2 was bubbled through. The chamber was maintained at 37 °C.
Once the wire myograph system was initiated, the wire was moved, and a load was exerted on the hook-attached chamber. The applied tensile force, amplified by a transducer and PowerLab (ADInstruments, Bella Vista, New South Wales, Australia), was continuously recorded as gram force using LabChart (ADInstruments, Bella Vista, New South Wales, Australia). The hook is pulled to apply a load of up to 1 gf. A resting period of approximately 10 min was required for the gradual relaxation of the vessel under tension from the hook. When relaxation reached a plateau, norepinephrine was added to the solution to achieve a final concentration of 5 μM. This causes the vessel to contract, increasing the load on the artery and surpassing 1 gf on the myograph recording. […] The reduction in load on the vessel in terms of gf was assessed to determine the relaxation rate and concentration (Figure 4). […]

Details of series [9]: method as in PMID 25357051. Particulars: cited from earlier work.
The test system of series [10] is rat testicular vasculature. Set-up: method as in doi:10.1007/BF00585581. Particulars: local administration after epinephrine-induced vasoconstriction; cited from earlier work.
[11] abbreviates: Rattus norvegicus, 1 min, read-out: IC50 (cell viability), RSMCs, 1 min after addition.
Setting [12] is: Rattus norvegicus, 5 min, read-out: IC50 (cell viability), RSMCs, 5 min after addition.
Where [13] appears, read: Rattus norvegicus, 10 min, read-out: IC50 (cell viability), RSMCs, 10 min after addition.
Where [14] appears, read: Rattus norvegicus, 0.5 h, read-out: IC50 (cell viability), RSMCs, 30 min after addition.
Setting [15] is: Rattus norvegicus, 1 h, read-out: IC50 (cell viability), RSMCs, 60 min after addition.
The mark [16] stands for this setting: read-out: IC50 (cell viability), RSMCs, 1 min after addition.
Setting [17] is: Homo sapiens, Endothelial cell, 1 min, read-out: IC50 (cell viability).
Setting [18] is: Homo sapiens, Endothelial cell, 5 min, read-out: IC50 (cell viability).
The mark [19] stands for this setting: Homo sapiens, Endothelial cell, 10 min, read-out: IC50 (cell viability).
[20] abbreviates: Homo sapiens, Endothelial cell, 0.5 h, read-out: IC50 (cell viability).
The mark [21] stands for this setting: Homo sapiens, Endothelial cell, 1 h, read-out: IC50 (cell viability).

As to `CCN(CC)CC(=O)Nc1c(C)cccc1C` [Lidocaine, lidocaine], in the series on rat abdominal aorta [1] (1% lidocaine for 10 min), the relaxation entry is recorded as “approximately 100%”. Besides, the “concentration achieving maximal vasodilation effect (approximately 100% relaxation)” value in the series with rat abdominal aorta [1] (10 min after administration, 5 μM norepinephrine, lidocaine data from previous research) is recorded as 35 mM. Also, the “duration of antispasmodic effect” value in series [2] was 10 to 20 min. Also, the “onset of antispasmodic effect” value in series [2] was 45 to 90 s. Further, in series [3], the osmotic pressure is 282 mOsm/L. Also, the “high concentrations relieving NE-dependent contractions and increasing blood flow” value in series [4] was 4.5 to 15 mM. Besides, in [4], the “low concentrations causing vasoconstriction” value was 15 to 1500 µM. Besides, the “peak concentration measured in peripheral blood” value in series [5] is 1.5 µg/mL. For the same molecule, the IC50 in series [6] (setting [11]) is 55300 µM; in [6] (setting [12]) it was 27900 µM; in series [6] (setting [13]), 16700 µM; in series [6] (setting [14]), 10100 µM; in series [6] (setting [15]), 7100 µM; in [6] (setting [16]), 55300 µM. Besides, the IC50 in series [6] (read-out: IC50 (cell viability), RSMCs, 5 min after addition) was found to be 27900 µM; in [6] (read-out: IC50 (cell viability), RSMCs, 10 min after addition), 16700 µM; in [7] (setting [17]) it was 24400 µM; in [7] (setting [18]) it was 16800 µM; in [7] (setting [19]), 13500 µM; in [7] (setting [20]) it was 10300 µM. For the same molecule, the half-inhibitory concentration (IC50) in series [7] (setting [21]) worked out at 7640 µM. The “IC50 expressed as percent concentration” value is 1.58% in series [6] (SMC, 1-min post-dose) and 0.70% in series [7] (EC, 1-min post-dose).
As to `O=[N+]([O-])OCC(CO[N+](=O)[O-])O[N+](=O)[O-]` [Nitroglycerine, nitroglycerin], the IC50 was 130 µM in series [6] (setting [14]); 109 µM in [6] (setting [15]); 134 µM in series [6] (read-out: IC50 (cell viability), RSMCs, 30 min after addition); 35 µM in [7] (Homo sapiens, Endothelial cell, 10 min, read-out: IC50 (cell viability), HCAECs, 10 min after addition); 38 µM in series [7] (Homo sapiens, Endothelial cell, 0.5 h, read-out: IC50 (cell viability), HCAECs, 30 min after addition); 38.8 µM in series [7] (Homo sapiens, Endothelial cell, 1 h, read-out: IC50 (cell viability), HCAECs, 60 min after addition). The half-inhibitory concentration (IC50) in [7] (read-out: IC50 (cell viability), HCAECs, 10 min after addition) is 35.1 µM. Further, the “concentration achieving maximal vasodilation effect (approximately 100% relaxation)” value in the series with rat abdominal aorta [8] stood at 0.022 mM. The relaxation entry in the series with rat abdominal aorta [8] (at the investigated concentrations, 10 min, 5 μM norepinephrine) was “approximately 50%”.
With `Cc1[nH]c(=O)c(C#N)cc1-c1ccc2nccn2c1` [Olprinone, olprinone], the cellular toxicity result in series [6] and in [7] was “No cellular toxicity was observed” each time.
As to `COc1ccc(Cc2nccc3cc(OC)c(OC)cc23)cc1OC` [Papaverine, papaverine], the “time until effects become evident” value in series [2] (after local administration) was 1 to 5 min. Moreover, the 50% inhibitory concentration (IC50) in [6] (setting [11]) was 100 µM; in series [6] (setting [12]), 118 µM; in [6] (setting [13]) it was 13.5 µM; in series [6] (setting [14]) it was 15.9 µM; in series [6] (setting [15]), 1.5 µM; in series [6] (setting [16]), 97 µM. Also, the IC50 in series [6] (read-out: IC50 (cell viability), RSMCs, 1 min after addition, listed as papaverine hydrochloride) came to 97 µM; in [6] (read-out: IC50 (cell viability), RSMCs, 60 min after addition) it was 1.46 µM; in series [7] (setting [17]) it was 56 µM; in series [7] (setting [18]) it was 4.04 µM; in series [7] (setting [19]), 4.29 µM; in series [7] (setting [20]) it was 5 µM. Moreover, the IC50 in series [7] (setting [21]) is 6.48 µM. In the series on rat abdominal aorta [8], the “concentration achieving maximal vasodilation effect (approximately 100% relaxation)” value is given as 0.18 mM. For the same molecule, the “pH of clinically used concentrations” value in series [9] is on record as 3–4.5.
For the molecule `Cc1ccc(N(CC2=NCCN2)c2cccc(O)c2)cc1` [Phentolamine, phentolamine], the “onset of the effect” value in [10] is at most 2 min. For the same molecule, the sustained effect entry in [10] is “up to 20 min”. Further, the cellular toxicity result in series [6] and in series [7] was “No cellular toxicity was observed” throughout.
